Measurements: patent US4649139A, “1,2,4-triazines” (Burroughs Wellcome Co., priority 1983, dated 1987)

Columns and labels:
[1] = tested on: aconitine-induced ventricular arrhythmias in anaesthetised rats; assay: animal or person; assay type: in vivo, Male Wistar rats; conditions: for % decrease in DBP: resting diastolic blood pressure; for amount of aconitine required to elicit ventricular arrhythmia (in words): pretreatment i.v., versus control animals
Protocol: Male Wistar rats weighing 200-300 g were used. Anaesthesia was induced with a halothane:air mixture and maintained by intravenous administration of a chloralose/pentobarbitone sodium mixture (3 mg/ml pentobarbitone sodium+9.5 mg/ml chloralose) after insertion of a femoral vein cannula. A tracheal cannula was inserted and the animal was respired via a Palmer small animal respiration pump (72 strokes/min and approx 1 ml/100 g). Rectal temperature was thermostatically maintained at 37° C. throughout the experiment. Cannulae were placed in a jugular vein for administration of aconitine and a carotid artery for continuous measurement of blood pressure. Subdermal needle electrodes were inserted for the recording of electrocardiograms throughout the experiment.
When the blood pressure of the animal had stabilised for 10-15 minutes, aconitine (dissolved in distilled water+HCl and diluted in 5% dextrose) was infused via the jugular vein cannula at a rate of 1 μg/min (0.03 mls/min). The total dose of aconitine required to produce ventricular tachycardia or ventricular fibrillation (VT/VF) of at least 1 sec duration was taken as the endpoint of the assay.
Anti-arrhythmic activity was assessed by pretreating animals randomly with drug or vehicle 15 mins prior to aconitine infusion and comparing the dose of aconitine necessary to induce ventricular arrhythmias in treatment groups with that of control groups. The compounds in accordance with the invention were administered as the mesylate or hydrochloride salt prepared immediately before use in a 5% dextrose solution. All drugs were administered via a femoral venous cannula in a dose volume of 0.5 ml.

[2] = tested on: guinea-pig right ventricular muscle; assay: Guinea-pig right ventricular muscle preparation (Vmax of phase 0 of the action potential); assay type: cell-based, male guinea-pigs; conditions: Cavia porcellus; stimulated at 1 Hz; 0 to 3×10^-4 M in modified Tyrodes solution; read-out: EC50 (50% reduction in Vmax)
Text: Guinea-pig right ventricular muscle preparation: (Campbell, Brit.J.Pharmac., 1982, 77, 541-548)
Strips of right ventricle excised from male guinea-pigs were electrically stimulated at a frequency of 1 Hz with punctate, bipolar silver wire electrodes.

beagle dogs = assay: Toxicity in dogs, daily administration for 14 days; conditions: two to three times the effective dose, daily for 14 days
Stability of the base = assay type: physicochemical; conditions: free base
[3] = Rattus norvegicus, iv, 0.25 h, read-out: % increase in aconitine to elicit VT/VF

| Structure (SMILES) | change in vivo at 1 mg/kg [1, 3] | % decrease in DBP ([1]; dose 1 mg/kg (i.v.)) | also measured |
| --- | --- | --- | --- |
| Cn1nc(-c2cccc(Cl)c2Cl)c(N)nc1=N [Example 1, 5(3)-Amino-6-(2,3-dichlorophenyl)-2,3(2,5)-dihydro-3(5)-imino-2-methyl-1,2,4-triazine] | 29% | 11% | IC50 [2]: 130 µM |
| Cn1nc(-c2cc(Cl)ccc2Cl)c(N)nc1=N [Example 2, 5(3)-Amino-6-(2,5-dichlorophenyl)-2,3(2,5)-dihydro-3(5)-imino-2-methyl-1,2,4-triazine] | – | – | change in vivo at 5 mg/kg [1, 3]: 440%; % decrease in DBP ([1]; dose 5 mg/kg (i.v.)): 10% |
| CCCCCOc1ccccc1-c1nn(C)c(=N)nc1N [Example 3, 5(3)-Amino-6-(2-n-pentyloxyphenyl)-2,3(2,5)-dihydro-3(5)-imino-2-methyl-1,2,4-triazine] | 144% | 8% | IC50 [2]: 5.9 µM |
| CC(C)n1nc(-c2cccc(Cl)c2Cl)c(N)nc1=N [Example 4, 5(3)-Amino-6-(2,3-dichlorophenyl)-2,3(2,5)-dihydro-3(5)-imino-2-isopropyl-1,2,4-triazine] | 490% | 13% | IC50 [2]: 2.2 µM; toxicity (in words) (beagle dogs): No marked toxicity was observed |
| Cn1nc(-c2ccccc2)c(N)nc1=N [Example 5, 5(3)-Amino-6-phenyl-2,3(2,5)-dihydro-3(5)-imino-2-methyl-1,2,4-triazine] | – | – | change in vivo at 5 mg/kg [1, 3]: 30%; % decrease in DBP ([1]; dose 5 mg/kg (i.v.)): 5% |
| Cn1nc(-c2c(F)cccc2Cl)c(N)nc1=N [Example 6, 5(3)-Amino-6-(2-chloro-6-fluorophenyl)-2,3(2,5)-dihydro-3(5)-imino-2-methyl-1,2,4-triazine] | – | – | change in vivo at 5 mg/kg [1, 3]: 149%; % decrease in DBP ([1]; dose 5 mg/kg (i.v.)): 1% |
| Cn1nc(-c2ccccc2I)c(N)nc1=N [Example 7, 5(3)-Amino-6-(2-iodophenyl)-2,3(2,5)-dihydro-3(5)-imino-2-methyl-1,2,4-triazine] | – | – | change in vivo at 5 mg/kg [1, 3]: 106%; % decrease in DBP ([1]; dose 5 mg/kg (i.v.)): 13% |
| COc1ccccc1-c1nn(C)c(=N)nc1N [Example 8, 5(3)-Amino-6-(2-methoxyphenyl)-2,3(2,5)-dihydro-3(5)-imino-2-methyl-1,2,4-triazine] | – | – | change in vivo at 10 mg/kg [1, 3]: 51%; % decrease in DBP ([1]; dose 10 mg/kg (i.v.)): 8% |
| Cn1nc(-c2ccccc2Cl)c(N)nc1=N [Example 9, 5(3)-Amino-6-(2-chlorophenyl)-2,3(2,5)-dihydro-3(5)-imino-2-methyl-1,2,4-triazine] | 32% | 4% | – |
| CCCn1nc(-c2cccc(Cl)c2Cl)c(N)nc1=N [Example 10, 5(3)-Amino-6-(2,3-dichlorophenyl)-2,3(2,5)-dihydro-3(5)-imino-2-n-propyl-1,2,4-triazine] | 225% | 3% | – |
| Cn1nc(-c2ccc(Cl)cc2Cl)c(N)nc1=N [Example 11, 5(3)-Amino-6-(2,4-dichlorophenyl)-2,3(2,5)-dihydro-3(5)-imino-2-methyl-1,2,4-triazine] | 33% | 7% | – |
| N=c1nc(N)c(-c2cccc(Cl)c2Cl)nn1Cc1ccccc1 [Example 12, 5(3)-Amino-6-(2,3-dichlorophenyl)-2,3(2,5)-dihydro-3(5)-imino-2-benzyl-1,2,4-triazine] | 14% | 5% | – |
| Cn1nc(-c2cc(Cl)cc(Cl)c2Cl)c(N)nc1=N [Example 13, 5(3)-Amino-6-(2,3,5-trichlorophenyl)-2,3(2,5)-dihydro-3(5)-imino-2-methyl-1,2,4-triazine] | 246% | 1% | – |
| CCCCCOc1ccc(-c2nn(C)c(=N)nc2N)cc1 [Example 14, 5(3)-Amino-6-(4-n-pentyloxyphenyl)-2,3(2,5)-dihydro-3(5)-imino-2-methyl-1,2,4-triazine] | 8% | 2% | – |
| CCCc1ccccc1-c1nn(C)c(=N)nc1N [Example 15, 5(3)-Amino-6-(2-n-propylphenyl)-2,3(2,5)-dihydro-3(5)-imino-2-methyl-1,2,4-triazine] | 12% | 5% | – |
| CCCOc1ccccc1-c1nn(C)c(=N)nc1N [Example 16, 5(3)-Amino-6-(2-n-propyloxyphenyl)-2,3(2,5)-dihydro-3(5)-imino-2-methyl-1,2,4-triazine] | 15% | 3% | – |
| CCCCCCCOc1ccccc1-c1nn(C)c(=N)nc1N [Example 17, 5(3)-Amino-6-(2-n-heptyloxyphenyl)-2,3(2,5)-dihydro-3(5)-imino-2-methyl-1,2,4-triazine] | 154% | 3% | – |
| CCCCCn1nc(-c2cccc(Cl)c2Cl)c(N)nc1=N [Example 18, 5(3)-Amino-6-(2,3-dichlorophenyl)-2,3(2,5)-dihydro-3(5)-imino-2-n-pentyl-1,2,4-triazine] | 46% | 1% | stability of the base (in words) (Stability of the base): unstable |
| CCN(CC)CC(=O)Nc1c(C)cccc1C [Lidocaine, reference compound] | – | – | change in vivo at 10 mg/kg [1, 3]: 44%; % decrease in DBP ([1]; dose 10 mg/kg (i.v.)): 1%; amount of aconitine required to elicit ventricular arrhythmia (in words) [1]: increased the amount of aconitine required to elicit the same ventricular arrhythmia |
| O=C1NC(=O)C(c2ccccc2)(c2ccccc2)N1 [Phenytoin, reference compound] | – | – | change in vivo at 10 mg/kg [1, 3]: 19%; % decrease in DBP ([1]; dose 10 mg/kg (i.v.)): 4%; amount of aconitine required to elicit ventricular arrhythmia (in words) [1]: increased the amount of aconitine required to elicit the same ventricular arrhythmia |
| CCN(CC)CCNC(=O)c1ccc(N)cc1 [Procainamide, reference compound] | – | – | change in vivo at 20 mg/kg [1, 3]: 11%; % decrease in DBP ([1]; dose 20 mg/kg (i.v.)): 22%; amount of aconitine required to elicit ventricular arrhythmia (in words) [1]: increased the amount of aconitine required to elicit the same ventricular arrhythmia |
| CC(C)NCC(O)COc1cccc2ccccc12 (centres unmarked) [Propranolol, reference compound] | 51% | 0% | amount of aconitine required to elicit ventricular arrhythmia (in words) [1]: increased the amount of aconitine required to elicit the same ventricular arrhythmia |
| C=C[C@H]1C[N@@]2CC[C@H]1C[C@@H]2[C@@H](O)c1ccnc2ccc(OC)cc12 [Quinidine, reference compound] | – | – | change in vivo at 10 mg/kg [1, 3]: 8%; % decrease in DBP ([1]; dose 10 mg/kg (i.v.)): 43%; amount of aconitine required to elicit ventricular arrhythmia (in words) [1]: increased the amount of aconitine required to elicit the same ventricular arrhythmia |
| COc1ccc(CCN(C)CCCC(C#N)(c2ccc(OC)c(OC)c2)C(C)C)cc1OC (centres unmarked) [Verapamil, reference compound] | 84% | 68% | amount of aconitine required to elicit ventricular arrhythmia (in words) [1]: increased the amount of aconitine required to elicit the same ventricular arrhythmia |
